Test results published in publication PMC4947994 (Acta Naturae, 2016).

What was measured:
HCC1937 cells [1] = assay: Cytotoxicity: Sub-G1 population by flow cytometry; type: cell-based, human; conditions: for Sub-G1 population: 72 h
Protocol: (§1) A BRCA1-deficient human breast cancer line HCC1937 (ATCC CRL-2336) was cultured in DMEM supplemented with 10% heat-inactivated fetal bovine serum, penicillin/streptomycin (100 U/ml), and pyruvate (0,11 mg/ml) at 37°C in 20% O2 humidified atmosphere. The cells were maintained in a logarithmic growth phase for all experiments.
(§2) To perform cell cycle analysis, the cells were then harvested after 72 hours, fixed with 70% EtOH (final concentration) for 60 min on ice, rinsed in PBS, and stained in a 500 •µl solution containing 50 •µg/ml propidium iodide and 25 •µg/ml RNase A for 15 min. Data were acquired by a BD FACS CantoII flow cytometer (BD Biosciences) and analyzed using the FACSDiva software. The cleavage of the fluorogenic peptide substrate […] was measured using a fluorometric assay. Upon treatment with cytotoxic agents, the cells were incubated for 48 hours, then harvested and washed with PBS. After centrifugation, they were re-suspended in PBS at a concentration of 2 × 10^6 cells/100 μl. Then, 25 μl of the suspension was added to a 96-well plate and mixed with a DEVD peptide substrate dissolved in a standard reaction buffer (100 mM HEPES, 10% sucrose, 5 mM DTT, 0.001% NP- 40, and 0.1% CHAPS, pH 7.2). Cleavage of the fluorogenic peptide substrate was monitored by AMC liberation in a VarioScan Flash multimode detector (Thermo Scientific) using 380 nm excitation and 460 nm emission wavelengths. Measurements were done in at least two independent experiments.

murine PARP-2 = target: T1, murine PARP-2 (Mus musculus, UniProt O88554); assay: PARP-2 auto-poly(ADP-ribosyl)ation enzyme assay ([3H]NAD+ incorporation); type: biochemical; conditions: for IC50: auto-poly(ADP-ribosyl)ation, NAD+ 0.4 mM, 37°C
T1 construct: made in house
T1 sequence (O88554 whole entry): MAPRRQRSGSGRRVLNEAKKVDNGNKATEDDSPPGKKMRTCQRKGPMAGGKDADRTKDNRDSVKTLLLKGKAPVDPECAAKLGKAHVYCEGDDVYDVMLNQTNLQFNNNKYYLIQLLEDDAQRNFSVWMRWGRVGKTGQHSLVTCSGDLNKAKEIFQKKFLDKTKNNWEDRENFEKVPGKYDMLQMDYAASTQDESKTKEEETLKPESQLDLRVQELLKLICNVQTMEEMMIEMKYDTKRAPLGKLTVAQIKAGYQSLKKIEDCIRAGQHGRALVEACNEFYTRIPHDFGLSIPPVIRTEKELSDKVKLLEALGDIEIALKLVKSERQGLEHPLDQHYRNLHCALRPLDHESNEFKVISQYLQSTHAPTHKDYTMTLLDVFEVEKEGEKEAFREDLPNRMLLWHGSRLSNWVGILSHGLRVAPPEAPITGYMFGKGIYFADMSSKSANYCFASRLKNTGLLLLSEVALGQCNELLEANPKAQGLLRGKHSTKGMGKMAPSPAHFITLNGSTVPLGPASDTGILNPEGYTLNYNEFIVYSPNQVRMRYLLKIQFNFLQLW
Protocol: (§3) Recombinant human PARP-1 and murine PARP- 2 proteins were purified as described previously. Reaction of poly(ADP-ribosyl)ation catalyzed by PARP-1 and PARP-2 was performed at optimal conditions for each enzyme. Briefly, for PARP-1: 50 mM Tris-HCl pH 8.0, 20 mM MgCl2, 150 mM NaCl, 7 mM β-mercaptoethanol, activated DNA (2 o.u.280/ml, degree of activation 25%), 300 •µM NAD^+ (0.18 •µCi [^3H]NAD^+), 37°C. The reaction was started by adding PARP-1 up to a final concentration of 0.2 μM and was stopped after 1 min, placing the reaction mixture on paper filters (Whatman-1) soaked with a 5% solution of trichloroacetic acid. For PARP-2: 50 mM Tris-HCl pH 8.0, 40 mM NaCl, 0.1 mg/ml BSA, 8 mM MgCl2, 1 mM DTT, activated DNA (2 o.u.280/ml, degree of activation 25%), 400 •µM NAD^+ (0.4 •µCi [^3H]NAD^+), 37°C. The reaction was started by adding PARP-2 up to a final concentration of 0.2 μM and was stopped after 5 min, placing the reaction mixture on the paper filters. The filters were washed four times by the 5% trichloroacetic acid, then by 90% ethanol (to remove acid), and air-dried. The quantity of radiolabel included into the acid insoluble product was registered on a scintillation counter Tri-Carb 2800 (Perkin Elmer) in a toluene scintillator. The quantity of the radiolabeled product was determined at the initial rate period.
(§4) The PARP-inhibiting activity of the synthesized compounds was evaluated in a reaction of auto- poly(ADP-ribosyl)ation at a NAD^+ concentration of 0.3 mM for PARP-1 and 0.4 mM for PARP-2. Different concentrations of the tested compounds were added to the reaction mixture before adding the enzyme. Reaction and detection of the products were performed as described above. To determine the IC50 value (concentration of the compound required to reduce the enzyme activity by 50%), the effect of different concentrations of the inhibitor on the enzyme activity was examined. Measurements were done in at least two independent experiments. IC50 values were calculated using the Origin Pro 8.0 software by nonlinear regression analysis.

HCC1937 cells [2] = assay: Caspase-3-like activity (fluorogenic peptide substrate cleavage); type: cell-based, human; conditions: 7-methylguanine alone, 48 h
Protocol: as §1
as §2, with “Then, 25 μl of the suspension was added to a 96-well plate and mixed with a DEVD peptide substrate dissolved in a standard reaction buffer (100 mM HEPES, 10% sucrose, 5 mM DTT, 0.001% NP- 40, and 0.1% CHAPS, pH 7.2).” left out, “Measurements were done in at least two independent experiments.” left out

human PARP-1 = target: T2, human PARP-1 (Homo sapiens, UniProt P09874); assay: biochemical; type: biochemical; conditions: for IC50: auto-poly(ADP-ribosyl)ation, NAD+ 0.3 mM, 37°C
T2 construct: made in house
T2 sequence (P09874 whole entry): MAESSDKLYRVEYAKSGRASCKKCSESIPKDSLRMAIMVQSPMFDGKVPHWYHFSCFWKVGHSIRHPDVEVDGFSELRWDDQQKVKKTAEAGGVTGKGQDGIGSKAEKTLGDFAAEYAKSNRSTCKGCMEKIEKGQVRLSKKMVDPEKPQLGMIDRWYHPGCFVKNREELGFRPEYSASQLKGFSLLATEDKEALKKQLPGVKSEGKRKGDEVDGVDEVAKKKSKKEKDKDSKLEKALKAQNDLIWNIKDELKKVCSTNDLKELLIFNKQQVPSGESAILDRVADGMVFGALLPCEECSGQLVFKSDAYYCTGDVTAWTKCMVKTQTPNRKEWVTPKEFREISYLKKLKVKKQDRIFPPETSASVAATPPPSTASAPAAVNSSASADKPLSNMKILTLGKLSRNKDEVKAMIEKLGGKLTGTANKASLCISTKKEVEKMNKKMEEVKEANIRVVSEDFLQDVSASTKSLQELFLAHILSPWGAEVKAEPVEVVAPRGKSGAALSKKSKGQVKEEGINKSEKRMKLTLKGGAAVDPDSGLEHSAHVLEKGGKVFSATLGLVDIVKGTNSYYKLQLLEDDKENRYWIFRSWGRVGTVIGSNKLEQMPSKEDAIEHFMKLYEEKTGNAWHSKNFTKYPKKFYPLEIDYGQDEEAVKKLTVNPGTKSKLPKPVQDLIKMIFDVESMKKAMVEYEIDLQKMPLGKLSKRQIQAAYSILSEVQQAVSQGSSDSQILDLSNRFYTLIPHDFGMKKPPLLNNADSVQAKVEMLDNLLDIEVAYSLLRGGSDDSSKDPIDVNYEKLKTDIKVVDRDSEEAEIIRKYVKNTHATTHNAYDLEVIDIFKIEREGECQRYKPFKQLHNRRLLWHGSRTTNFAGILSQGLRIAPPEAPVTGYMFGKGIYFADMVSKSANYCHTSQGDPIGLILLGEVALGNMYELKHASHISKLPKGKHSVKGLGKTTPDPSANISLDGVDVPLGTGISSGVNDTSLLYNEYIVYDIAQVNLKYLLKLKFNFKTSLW
Protocol: as §3, §4

PARP-1 = conditions: cited from earlier work
PARP = system: PARP; design: method as in PMID 11149897, PMID 16870158; conditions: cited from earlier work
[3] = replacement of 2-oxo group by amino group

For `Cn1cnc2nc(N)[nH]c(=O)c21` [7-methylguanine, 7-Methylguanine], the Sub-G1 population (HCC1937 cells [1]; 7-methylguanine 150 μM alone) was “around 2%”, the cytotoxicity (HCC1937 cells [1]; at the PARP inhibitory concentration, 7-methylguanine alone) was “not cytotoxic” and the IC50 (murine PARP-2) was 50 µM. The “increase in the ability to inhibit PARP-2 compared with 7-methylxanthine” value (murine PARP-2; [3]) was 3 fold, the caspase-3 activation (HCC1937 cells [2]) was “no caspase-3 activation” and the IC50 (human PARP-1) was 150 µM. For the same compound, the “increase in the ability to inhibit PARP-1 compared with 7-methylxanthine” value (human PARP-1; [3]) was 5 fold.

Compound `COc1cccc2c1C(=O)c1c(O)c3c(c(O)c1C2=O)C[C@@](O)(C(=O)CO)C[C@@H]3O[C@H]1C[C@H](N)[C@H](O)[C@H](C)O1` [doxorubicin, reference compound] has a Sub-G1 population (HCC1937 cells [1]; doxorubicin 1 μM alone) of 32%.

For `Cn1cnc2[nH]c(=O)[nH]c(=O)c21` [7-methylxanthine, 7-Methylxanthine], the IC50 (murine PARP-2) is given as 160 µM, the IC50 (human PARP-1) is given as 800 µM and the PARP-1 inhibition (PARP-1) is given as “moderate inhibitor”.

Compound `N.N.[Cl][Pt][Cl]` [cisplatin, reference compound] has a Sub-G1 population (HCC1937 cells [1]; cisplatin 70 μM alone) of 34%.

`Cn1cnc2nc[nH]c(=O)c21` [7-methylhypoxanthine, 7-Methylhypoxanthine] gave an IC50 (murine PARP-2) of 620 µM and an IC50 (human PARP-1) of 780 µM.

In the case of `Cc1c[nH]c(=O)[nH]c1=O` [thymine], the PARP inhibitory effect (PARP) is listed as “relatively weak inhibitory effect”.

For `O=c1[nH]c(=O)c2nc[nH]c2[nH]1` [xanthine, reference compound], the PARP-1 inhibition (PARP-1) is given as “does not show inhibition”.

Compound `CCn1cnc2[nH]c(N)nc(=O)c21` [7-ethylguanine, 7-Ethylguanine] has an IC50 (murine PARP-2) of 90 µM and an IC50 (human PARP-1) of 230 µM.

For `O=c1[nH]cnc2nc[nH]c12` [hypoxanthine], the PARP inhibitory effect (PARP) is listed as “relatively weak inhibitory effect”.
